Counter-ions that a name gives are not always drawn.
Columns and labels:
Assay in all cases: Kinase inhibitor library screening, PrestoBlue cell viability, 1 or 10 μM, 72 h
[1] = system: 501Mel-GP cells (Dabrafenib-resistant); conditions: 72 h; for viability at 1 µM / viability at 10 µM: Homo sapiens; for viability at 1 µM: read-out: cell viability, 501Mel GP, 1μΜ; for viability at 10 µM: read-out: cell viability, 501Mel GP, 10μΜ
[2] = system: IGR37-GP cells (Dabrafenib-resistant); conditions: for viability at 1 µM / viability at 10 µM: Homo sapiens, IGR-37, 72 h; for viability at 1 µM: read-out: cell viability, IGR37 GP, 1μΜ; for viability at 10 µM: read-out: cell viability, IGR37 GP, 10μΜ
[3] = system: 501Mel-XP cells (Vemurafenib-resistant); conditions: 72 h; for viability at 1 µM / viability at 10 µM: Homo sapiens; for viability at 1 µM: read-out: cell viability, 501Mel XP, 1μΜ; for viability at 10 µM: read-out: cell viability, 501Mel XP, 10μΜ
[4] = system: A375-XP cells (Vemurafenib-resistant); conditions: for viability at 1 µM / viability at 10 µM: Homo sapiens, A-375, 72 h; for viability at 1 µM: read-out: cell viability, A375 XP, 1μΜ; for viability at 10 µM: read-out: cell viability, A375 XP, 10μΜ
A375 cells (parental) = conditions: for viability at 1 µM / viability at 10 µM: Homo sapiens, A-375, 72 h; for viability at 1 µM: read-out: cell viability, A375 Parental, 1μΜ; for viability at 10 µM: read-out: cell viability, A375 Parental, 10μΜ
[5] = system: A375-GP cells (Dabrafenib-resistant); conditions: for viability at 1 µM / viability at 10 µM: Homo sapiens, A-375, 72 h; for viability at 1 µM: read-out: cell viability, A375 GP, 1μΜ; for viability at 10 µM: read-out: cell viability, A375 GP, 10μΜ
501Mel cells (parental) = conditions: 72 h; for viability at 1 µM / viability at 10 µM: Homo sapiens; for viability at 1 µM: read-out: cell viability, 501Mel Parental, 1μΜ; for viability at 10 µM: read-out: cell viability, 501Mel Parental, 10μΜ
Summary of the method: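 Parental cells and Vemurafenib-resistant (XP) or Dabrafenib-resistant (GP) derivatives were treated with library kinase inhibitors at 1 and 10 μM for 72 h. Viability measured by PrestoBlue and expressed as % of untreated cells, at least in duplicate.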

IGR37 cells (parental) = conditions: for viability at 1 µM / viability at 10 µM: Homo sapiens, IGR-37, 72 h; for viability at 1 µM: read-out: cell viability, IGR37 Parental, 1μΜ; for viability at 10 µM: read-out: cell viability, IGR37 Parental, 10μΜ
[6] = system: IGR37-XP cells (Vemurafenib-resistant); conditions: for viability at 1 µM / viability at 10 µM: Homo sapiens, IGR-37, 72 h; for viability at 1 µM: read-out: cell viability, IGR37 XP, 1μΜ; for viability at 10 µM: read-out: cell viability, IGR37 XP, 10μΜ

SMILES	viability at 1 µM [1] [%]	viability at 10 µM [1] [%]	viability at 1 µM [2] [%]	viability at 10 µM [2] [%]	viability at 1 µM [3] [%]	viability at 10 µM [3] [%]	viability at 1 µM [4] [%]	viability at 10 µM [4] [%]	viability at 1 µM (A375 cells (parental)) [%]	viability at 10 µM (A375 cells (parental)) [%]	viability at 1 µM [5] [%]	viability at 10 µM [5] [%]	viability at 1 µM (501Mel cells (parental)) [%]	viability at 10 µM (501Mel cells (parental)) [%]	viability at 1 µM (IGR37 cells (parental)) [%]	viability at 10 µM (IGR37 cells (parental)) [%]	viability at 1 µM [6] [%]	viability at 10 µM [6] [%]	also measured
Cc1cc(Nc2cc(N3CCN(C)CC3)nc(/C=C/c3ccccc3)n2)n[nH]1 [ENMD-2076]	99.4	25.5	90.4	5.2	69.3	1.1	79.9	19.2	67.6	21.2	65.8	20.9	97	3.4	96.5	25.6	89.3	2.2	
Cn1cc(C2=C(c3cn(C4CCN(Cc5ccccn5)CC4)c4ccccc34)C(=O)NC2=O)c2ccccc21 [Enzastaurin (LY317615)]																			Cell viability in kinase inhibitor library screening, 501Mel GP, 1μΜ ([1]; 501Mel GP, 1μΜ, in %): 92.5; Cell viability in kinase inhibitor library screening, 501Mel GP, 10μΜ ([1]; 501Mel GP, 10μΜ, in %): 54.6; Cell viability in kinase inhibitor library screening, IGR37 GP, 10μΜ ([2]; IGR37 GP, 10μΜ, 72 h): 58.7%; Cell viability in kinase inhibitor library screening, IGR37 GP, 1μΜ ([2]; IGR37 GP, 1μΜ, 72 h, in %): 100.0; Cell viability in kinase inhibitor library screening, 501Mel XP, 1μΜ ([3]; 501Mel XP, 1μΜ, in %): 85.4; Cell viability in kinase inhibitor library screening, 501Mel XP, 10μΜ ([3]; 501Mel XP, 10μΜ, in %): 48.1; Cell viability in kinase inhibitor library screening, A375 XP, 1μΜ ([4]; A375 XP, 1μΜ, 72 h): 103.5; Cell viability in kinase inhibitor library screening, A375 XP, 10μΜ ([4]; A375 XP, 10μΜ, 72 h): 66.7; Cell viability in kinase inhibitor library screening, A375 Parental, 10μΜ (A375 cells (parental); A375 Parental, 10μΜ, 72 h): 55.3; Cell viability in kinase inhibitor library screening, A375 Parental, 1μΜ (A375 cells (parental); A375 Parental, 1μΜ, 72 h): 99.1; Cell viability in kinase inhibitor library screening, A375 GP, 1μΜ ([5]; A375 GP, 1μΜ, 72 h): 97.4; Cell viability in kinase inhibitor library screening, A375 GP, 10μΜ ([5]; A375 GP, 10μΜ, 72 h): 58.1; Cell viability in kinase inhibitor library screening, 501Mel Parental, 1μΜ (501Mel cells (parental); 501Mel Parental, 1μΜ, in %): 78.4; Cell viability in kinase inhibitor library screening, 501Mel Parental, 10μΜ (501Mel cells (parental); 501Mel Parental, 10μΜ, in %): 63.8; Cell viability in kinase inhibitor library screening, IGR37 Parental, 10μΜ (IGR37 cells (parental); IGR37 Parental, 10μΜ, 72 h, in %): 82.6; Cell viability in kinase inhibitor library screening, IGR37 XP, 10μΜ ([6]; IGR37 XP, 10μΜ, 72 h): 31.7%; Cell viability in kinase inhibitor library screening, IGR37 XP, 1μΜ ([6]; IGR37 XP, 1μΜ, 72 h, in %): 98.3
C#Cc1cccc(Nc2ncnc3cc(OCCOC)c(OCCOC)cc23)c1 [Erlotinib HCl]	95	61.2	93.1	67.5	86.3	38	100	83.4	100	73.4	96.2	69.1	97.2	84.3	95.5	92	92.4	51.9	
CN1CC[C@H](c2c(O)cc(O)c3c(=O)cc(-c4ccccc4Cl)oc23)[C@H](O)C1 [Flavopiridol hydrochloride]																			cell viability (kinase inhibitor library screening) ([1]; 501Mel GP, 1μΜ): 0.662%; cell viability (kinase inhibitor library screening) ([1]; 501Mel GP, 10μΜ): 0.4%; cell viability (kinase inhibitor library screening) ([2]; IGR37 GP, 1μΜ, 72 h): 4.5%; cell viability (kinase inhibitor library screening) ([2]; IGR37 GP, 10μΜ, 72 h): 3.8%; cell viability (kinase inhibitor library screening) ([3]; 501Mel XP, 1μΜ): 0.473%; cell viability (kinase inhibitor library screening) ([3]; 501Mel XP, 10μΜ): 0.3%; cell viability (kinase inhibitor library screening) ([4]; A375 XP, 1μΜ, 72 h): 5.6%; cell viability (kinase inhibitor library screening) ([4]; A375 XP, 10μΜ, 72 h): 5.1%; cell viability (kinase inhibitor library screening) (A375 cells (parental); A375 Parental, 10μΜ, 72 h): 7.2%; cell viability (kinase inhibitor library screening) (A375 cells (parental); A375 Parental, 1μΜ, 72 h): 7.0%; cell viability (kinase inhibitor library screening) ([5]; A375 GP, 1μΜ, 72 h): 4.6%; cell viability (kinase inhibitor library screening) ([5]; A375 GP, 10μΜ, 72 h): 3.0%; cell viability (kinase inhibitor library screening) (501Mel cells (parental); 501Mel Parental, 1μΜ): 1.1%; cell viability (kinase inhibitor library screening) (501Mel cells (parental); 501Mel Parental, 10μΜ): 1.3%; cell viability (kinase inhibitor library screening) (IGR37 cells (parental); IGR37 Parental, 1μΜ, 72 h): 2.2%; cell viability (kinase inhibitor library screening) (IGR37 cells (parental); IGR37 Parental, 10μΜ, 72 h): 2.2%; cell viability (kinase inhibitor library screening) ([6]; IGR37 XP, 1μΜ, 72 h): 2.9%; cell viability (kinase inhibitor library screening) ([6]; IGR37 XP, 10μΜ, 72 h): 3.2%
